Numbers after ± are expanded uncertainties.
Assays:
[1] = xn = mol fraction of the nth substance listed

CCC(C)CO (configuration not stated) [2-methyl-1-butanol] + CCO
surface tension liquid-gas [mN/m], [1]
Details	293.15 K	298.15 K	303.15 K	308.15 K	313.15 K	318.15 K	323.15 K
x1 = 0.0268	22.48 ± 0.14	22.1 ± 0.14	21.71 ± 0.14	21.39 ± 0.14	21.04 ± 0.14	20.68 ± 0.14	20.36 ± 0.13
x1 = 0.0549	22.65 ± 0.14	22.25 ± 0.14	21.9 ± 0.14	21.56 ± 0.14	21.22 ± 0.14	20.9 ± 0.14	20.55 ± 0.14
x1 = 0.0845	22.76 ± 0.14	22.37 ± 0.14	21.99 ± 0.14	21.67 ± 0.14	21.33 ± 0.14	21 ± 0.14	20.64 ± 0.14
x1 = 0.1156	22.86 ± 0.14	22.47 ± 0.14	22.1 ± 0.14	21.75 ± 0.14	21.44 ± 0.14	21.08 ± 0.14	20.73 ± 0.14
x1 = 0.1484	22.96 ± 0.14	22.54 ± 0.14	22.17 ± 0.14	21.82 ± 0.14	21.49 ± 0.14	21.12 ± 0.14	20.81 ± 0.14
x1 = 0.183	23.01 ± 0.15	22.62 ± 0.14	22.23 ± 0.14	21.89 ± 0.14	21.54 ± 0.14	21.2 ± 0.14	20.86 ± 0.14
x1 = 0.2584	23.15 ± 0.15	22.72 ± 0.15	22.35 ± 0.15	22 ± 0.14	21.61 ± 0.14	21.24 ± 0.14	20.91 ± 0.14
x1 = 0.3433	23.28 ± 0.15	22.86 ± 0.15	22.46 ± 0.15	22.11 ± 0.15	21.76 ± 0.15	21.37 ± 0.14	20.98 ± 0.14
x1 = 0.4395	23.43 ± 0.15	22.98 ± 0.15	22.58 ± 0.15	22.22 ± 0.15	21.83 ± 0.15	21.44 ± 0.15	21.05 ± 0.15
x1 = 0.5495	23.56 ± 0.16	23.09 ± 0.16	22.69 ± 0.16	22.3 ± 0.15	21.94 ± 0.15	21.54 ± 0.15	21.15 ± 0.15
x1 = 0.6765	23.72 ± 0.16	23.25 ± 0.16	22.82 ± 0.16	22.41 ± 0.16	22.02 ± 0.16	21.61 ± 0.16	21.27 ± 0.15
x1 = 0.8247	23.89 ± 0.17	23.38 ± 0.17	22.96 ± 0.17	22.54 ± 0.16	22.13 ± 0.16	21.7 ± 0.16	21.33 ± 0.16
x1 = 1	24.09 ± 0.18	23.61 ± 0.18	23.14 ± 0.17	22.69 ± 0.17	22.3 ± 0.17	21.86 ± 0.17	21.44 ± 0.17

CCC(C)CO (configuration not stated) [2-methyl-1-butanol]
Details	surface tension liquid-gas [mN/m]
293.15 K	24.09 ± 0.18
298.15 K	23.61 ± 0.18
303.15 K	23.14 ± 0.17
308.15 K	22.69 ± 0.17
313.15 K	22.3 ± 0.17
318.15 K	21.86 ± 0.17
323.15 K	21.44 ± 0.17

CCC(C)(C)O [2-methylbutan-2-ol] + CCO
surface tension liquid-gas [mN/m], [1]
Details	293.15 K	298.15 K	303.15 K	308.15 K	313.15 K	318.15 K	323.15 K
x1 = 0.0268	22.5 ± 0.12	22.05 ± 0.12	21.67 ± 0.12	21.34 ± 0.12	20.93 ± 0.11	20.58 ± 0.11	20.22 ± 0.11
x1 = 0.0549	22.66 ± 0.12	22.23 ± 0.12	21.85 ± 0.12	21.51 ± 0.12	21.16 ± 0.12	20.82 ± 0.12	20.48 ± 0.11
x1 = 0.0845	22.78 ± 0.12	22.36 ± 0.12	21.98 ± 0.12	21.64 ± 0.12	21.3 ± 0.12	20.97 ± 0.12	20.62 ± 0.12
x1 = 0.1156	22.88 ± 0.12	22.46 ± 0.12	22.08 ± 0.12	21.75 ± 0.12	21.41 ± 0.12	21.07 ± 0.12	20.72 ± 0.12
x1 = 0.1484	22.97 ± 0.12	22.54 ± 0.12	22.16 ± 0.12	21.83 ± 0.12	21.48 ± 0.12	21.14 ± 0.12	20.79 ± 0.12
x1 = 0.183	23.04 ± 0.12	22.61 ± 0.12	22.23 ± 0.12	21.89 ± 0.12	–	21.2 ± 0.12	20.84 ± 0.12
x1 = 0.2584	23.16 ± 0.13	22.73 ± 0.12	22.34 ± 0.12	21.99 ± 0.12	–	21.28 ± 0.12	20.92 ± 0.12
x1 = 0.3433	23.28 ± 0.13	22.84 ± 0.13	22.45 ± 0.13	22.09 ± 0.13	21.73 ± 0.12	21.36 ± 0.12	21 ± 0.12
x1 = 0.4395	23.41 ± 0.13	22.97 ± 0.13	22.56 ± 0.13	22.19 ± 0.13	21.82 ± 0.13	21.45 ± 0.13	21.08 ± 0.13
x1 = 0.5495	23.55 ± 0.14	23.1 ± 0.14	22.68 ± 0.13	22.29 ± 0.13	21.92 ± 0.13	21.53 ± 0.13	21.16 ± 0.13
x1 = 0.6765	23.7 ± 0.14	23.24 ± 0.14	22.81 ± 0.14	22.4 ± 0.14	22.02 ± 0.14	21.62 ± 0.14	21.23 ± 0.13
x1 = 0.8247	23.88 ± 0.15	23.41 ± 0.15	22.96 ± 0.15	22.53 ± 0.14	22.15 ± 0.14	21.73 ± 0.14	21.34 ± 0.14
x1 = 1	24.04 ± 0.16	23.61 ± 0.16	23.14 ± 0.15	22.69 ± 0.15	22.3 ± 0.15	21.86 ± 0.15	21.44 ± 0.15
